Earlier results as cited in patent US20080160086A1, “Delivery Systems For Calcium” (Scepter Holdings, Inc., priority 2004, published 2008).

Settings: in humans; U.S. Pat. No. 6,582,722

Substance: calcium picolinate [calcium picolinate chelate]
- bioavailability: high bioavailability
